According to patent US20220087263A1, “HERBICIDE COMPOSITION AND APPLICATION THEREOF” (SHENYANG SINOCHEM AGROCHEMICALS R&D CO., LTD., priority 2018, published 2022):
Where “and” joins values, the source holds several entries; their conditions need not be identical. Identical values can stand only once.

Columns and labels:
barnyard grass = assay: Greenhouse test of weed control effect, combined action evaluated by Gowing method; format: in vivo; conditions: single component
Method: (§1) Embodiment 1 The synergistic effects of the compound contained with component A and component B is conducted in greenhouse in the present invention, and the component A takes A-3, A-4 and A-5 compounds in the compound table 1 of the general formula I as examples.
(§2) The synergistic effects of the composition on the weeds is defined through greenhouse test.
(§3) A weed culture method is: respectively planting weed seeds of piemarker and barnyard grass quantitatively in a paper cup with a diameter of 7 cm and containing nutrient soil; after planting, covering soil, pressing and watering; and then culturing in a greenhouse. The grass weeds grow to 5-7 leaf stages; the broadleaf weeds grow to 6-8 leaf stages; pre-emergence and post-emergence treatment are conducted with three times repeats. The weeds are placed in the greenhouse after treatment when the leaf without water dried naturally in air, and cultured with normal method. According to the inhibited condition or dying condition of the weeds, after treatment 30 days, visual inspection of the control effect is conducted (see Table 2-Table 7).
(§4) A herbicide formulation preparing method: all test samples are technical dissolved by a mixed solvent of acetone and dimethylformyl (1:2, V/V) firstly; then 1‰ of Tween 80 water is used to prepare mother liquor of a certain concentration; and then processing solutions of different doses are prepared according to test schemes.
(§5) The present invention adopts a Gowing method for evaluating the combined action of the proposed composition.
(§6) X—the weed control effect when the dosage of the component A of the herbicide is P;
(§7) Y—the weed control effect when the dosage of the component B of the herbicide is Q;
(§8) E0—the theoretical control effect when the dosage of the component A of the herbicide is P+the theoretical control effect when the dosage of the component B of the herbicide is Q;
(§9) E—the measured control effect after the component A of the herbicide and the component B of the herbicide are mixed in the above proportion.
(§10) When E−E0>10%, the synergy is achieved; when E−E0<−10%, antagonism is achieved; when the value of E−E0 is between ±10%, the addition effect is achieved.

piemarker = assay: as above; format: in vivo; conditions: single component
Method: as §1, §2, §3, §4, §5, §6, §7, §8, §9, §10

[1] = dose 7.5 ga.i./hm^2, visual inspection 30 days after treatment
[2] = dose 30 ga.i./hm^2, visual inspection 30 days after treatment
[3] = dose 120 ga.i./hm^2, visual inspection 30 days after treatment

In the case of `c1cc[n+]2c(c1)-c1cccc[n+]1CC2` [Diquat, diquat], the “Measured Value E (weed control effect)” value (barnyard grass; [1]) is reported as 30% and 20%, the “Measured Value E (weed control effect)” value (barnyard grass; [2]) is reported as 50% and 45% and 40% and the “Measured Value E (weed control effect)” value (barnyard grass; [3]) is reported as 65% and 60% and 55%. The “Measured Value E (weed control effect)” value (piemarker; [1]) was 20% and 15% and 30%, the “Measured Value E (weed control effect)” value (piemarker; [2]) was 50% and 55% and 45% and the “Measured Value E (weed control effect)” value (piemarker; [3]) was 60% and 65% and 55%.
